This passage reports melting point results from US7368578B2, “Five-membered heterocyclic compounds” (Takeda Pharmaceutical Company Limited, priority 2002, dated 2008).

The term melting point denotes the temperature, or range, at which the solid turns liquid. Turning to `CCOC(=O)c1cn(Cc2ccccc2)nc1OCc1ccc(OCc2nc(-c3ccco3)oc2C)c(Br)c1` [Example 55, ethyl 1-benzyl-3-[(3-bromo-4-{[2-(2-furyl)-5-methyl-1,3-oxazol-4-yl]methoxy}benzyl)oxy]-1H-pyrazole-4-carboxylate], the melting point lay within 158 to 159 °C.

For the compound `CCOC(=O)c1cn(Cc2ccccc2)nc1OCc1ccc(OCc2nc(-c3ccco3)oc2C)c(-c2ccccc2)c1` [Example 56, ethyl 1-benzyl-3-[(4-{[2-(2-furyl)-5-methyl-1,3-oxazol-4-yl]methoxy}-3-phenylbenzyl)oxy]-1H-pyrazole-4-carboxylate], the melting point was 134 to 135 °C.

Compound `Cc1oc(-c2ccco2)nc1COc1ccc(COc2nn(Cc3ccccc3)cc2C(=O)O)cc1-c1ccccc1` [Example 57, 1-benzyl-3-[(4-{[2-(2-furyl)-5-methyl-1,3-oxazol-4-yl]methoxy}-3-phenylbenzyl)oxy]-1H-pyrazole-4-carboxylic acid] displayed a melting point of 181 to 182 °C.

Consider `Cc1oc(-c2ccco2)nc1COc1ccc(COc2nn(Cc3ccccc3)cc2C=O)cc1-c1ccccc1` [Example 59, 1-benzyl-3-[(4-{[2-(2-furyl)-5-methyl-1,3-oxazol-4-yl]methoxy}-3-phenylbenzyl)oxy]-1H-pyrazole-4-carbaldehyde], for which the melting point is 122 to 123 °C.

`CCOC(=O)c1cn(Cc2ccccc2)nc1OCc1ccc(OCc2nc(-c3ccco3)oc2C)c(C)c1` [Example 60, ethyl 1-benzyl-3-[(4-{[2-(2-furyl)-5-methyl-1,3-oxazol-4-yl]methoxy}-3-methylbenzyl)oxy]-1H-pyrazole-4-carboxylate] registered a melting point of 120 to 121 °C.

`Cc1cc(COc2nn(Cc3ccccc3)cc2C(=O)O)ccc1OCc1nc(-c2ccco2)oc1C` [Example 61, 1-benzyl-3-[(4-{[2-(2-furyl)-5-methyl-1,3-oxazol-4-yl]methoxy}-3-methylbenzyl)oxy]-1H-pyrazole-4-carboxylic acid]: the melting point is 176 to 177 °C.

On to `Cc1cc(COc2nn(Cc3ccccc3)cc2C=O)ccc1OCc1nc(-c2ccco2)oc1C` [Example 63, 1-benzyl-3-[(4-{[2-(2-furyl)-5-methyl-1,3-oxazol-4-yl]methoxy}-3-methylbenzyl)oxy]-1H-pyrazole-4-carbaldehyde], for which the melting point was in the range of 121 to 122 °C.

`CCOC(=O)c1cn(-c2ccccc2)nc1OCc1oc2cc(OCc3nc(-c4ccccc4)oc3C)ccc2c1-c1ccccc1` [Example 64, ethyl 3-({6-[(5-methyl-2-phenyl-1,3-oxazol-4-yl)methoxy]-3-phenyl-1-benzofuran-2-yl}methoxy)-1-phenyl-1H-pyrazole-4-carboxylate] yielded a melting point of 143 to 144 °C.

As to `Cc1oc(-c2ccccc2)nc1COc1ccc2c(-c3ccccc3)c(COc3nn(-c4ccccc4)cc3C(=O)O)oc2c1` [Example 65, 3-({6-[(5-methyl-2-phenyl-1,3-oxazol-4-yl)methoxy]-3-phenyl-1-benzofuran-2-yl}methoxy)-1-phenyl-1H-pyrazole-4-carboxylic acid], the melting point was 200 to 201 °C.

`Cc1oc(-c2ccccc2)nc1COc1ccc2c(-c3ccccc3)c(COc3nn(-c4ccccc4)cc3CO)oc2c1` [Example 66, [3-({6-[(5-methyl-2-phenyl-1,3-oxazol-4-yl)methoxy]-3-phenyl-1-benzofuran-2-yl}methoxy)-1-phenyl-1H-pyrazol-4-yl]methanol] gave a melting point of 118 to 119 °C.

As to `Cc1oc(-c2ccccc2)nc1COc1ccc2c(-c3ccccc3)c(COc3nn(-c4ccccc4)cc3C=O)oc2c1` [Example 67, 3-({6-[(5-methyl-2-phenyl-1,3-oxazol-4-yl)methoxy]-3-phenyl-1-benzofuran-2-yl}methoxy)-1-phenyl-1H-pyrazole-4-carbaldehyde], the melting point lay within 176 to 177 °C.

Compound `CCOC(=O)c1cn(Cc2ccccc2)nc1OCc1ccc(OCc2nc(-c3ccco3)oc2C)c(CC)c1` [Example 68, ethyl 1-benzyl-3-[(3-ethyl-4-{[2-(2-furyl)-5-methyl-1,3-oxazol-4-yl]methoxy}benzyl)oxy]-1H-pyrazole-4-carboxylate] yielded a melting point of 125 to 126 °C.

Consider `CCc1cc(COc2nn(Cc3ccccc3)cc2C(=O)O)ccc1OCc1nc(-c2ccco2)oc1C` [Example 69, 1-benzyl-3-[(3-ethyl-4-{[2-(2-furyl)-5-methyl-1,3-oxazol-4-yl]methoxy}benzyl)oxy]-1H-pyrazole-4-carboxylic acid], for which the melting point is 173 to 174 °C.

With `CCc1cc(COc2nn(Cc3ccccc3)cc2C=O)ccc1OCc1nc(-c2ccco2)oc1C` [Example 71, 1-benzyl-3-[(3-ethyl-4-{[2-(2-furyl)-5-methyl-1,3-oxazol-4-yl]methoxy}benzyl)oxy]-1H-pyrazole-4-carbaldehyde], the melting point lay in the range of 128 to 129 °C.

The compound `COc1cc(COc2nn(-c3ccccc3)cc2C(=O)O)ccc1OCc1nc(-c2ccco2)oc1C` [Example 73, 3-[(4-{[2-(2-furyl)-5-methyl-1,3-oxazol-4-yl]methoxy}-3-methoxybenzyl)oxy]-1-phenyl-1H-pyrazole-4-carboxylic acid] returned a melting point of 184 to 185 °C.

`COc1cc(COc2nn(-c3ccccc3)cc2C(N)=O)ccc1OCc1nc(-c2ccco2)oc1C` [Example 74, 3-[(4-{[2-(2-furyl)-5-methyl-1,3-oxazol-4-yl]methoxy}-3-methoxybenzyl)oxy]-1-phenyl-1H-pyrazole-4-carboxamide]: the melting point is 175 to 176 °C.

Consider `CCOC(=O)/C=C/c1cn(-c2ccccc2)nc1OCc1ccc(OCc2nc(-c3ccco3)oc2C)c(OC)c1` [Example 78, ethyl (2E)-3-{3-[(4-{[2-(2-furyl)-5-methyl-1,3-oxazol-4-yl]methoxy}-3-methoxybenzyl)oxy]-1-phenyl-1H-pyrazol-4-yl}-2-propenoate], for which the melting point is 177 to 178 °C.

The compound `COc1cc(COc2nn(-c3ccccc3)cc2/C=C/C(=O)O)ccc1OCc1nc(-c2ccco2)oc1C` [Example 79, (2E)-3-{3-[(4-{[2-(2-furyl)-5-methyl-1,3-oxazol-4-yl]methoxy}-3-methoxybenzyl)oxy]-1-phenyl-1H-pyrazol-4-yl}-2-propenoic acid] gave a melting point of 204 to 205 °C.

In the case of `Cc1oc(-c2ccccc2)nc1COc1ccc(COc2nn(-c3ccccc3)cc2C=O)cc1` [Example 80, 3-({4-[(2-phenyl-5-methyl-1,3-oxazol-4-yl)methoxy]benzyl}oxy)-1-phenyl-1H-pyrazole-4-carbaldehyde], the melting point is 152 to 153 °C.

Consider `Cc1oc(-c2ccccc2)nc1COc1ccc(COc2nn(-c3ccccc3)cc2CO)cc1` [Example 81, [3-({4-[(2-phenyl-5-methyl-1,3-oxazol-4-yl)methoxy]benzyl}oxy)-1-phenyl-1H-pyrazol-4-yl]methanol], for which the melting point lay in the range of 118 to 119 °C.

In turn, `CCOC(=O)/C=C/c1cn(-c2ccccc2)nc1OCc1ccc(OCc2nc(-c3ccccc3)oc2C)cc1` [Example 82, ethyl (2E)-3-[3-({4-[(2-phenyl-5-methyl-1,3-oxazol-4-yl)methoxy]benzyl}oxy)-1-phenyl-1H-pyrazol-4-yl]-2-propenoate] registered a melting point of 154 to 155 °C.

As for `Cc1oc(-c2ccccc2)nc1COc1ccc(COc2nn(-c3ccccc3)cc2/C=C/C(=O)O)cc1` [Example 83, (2E)-3-[3-({4-[(2-phenyl-5-methyl-1,3-oxazol-4-yl)methoxy]benzyl}oxy)-1-phenyl-1H-pyrazol-4-yl]-2-propenoic acid], the melting point was 186 to 187 °C.

Compound `Cc1oc(-c2ccco2)nc1COc1ccc(COc2nn(-c3ccccc3)cc2C=O)cc1` [Example 85, 3-[(4-{[2-(2-furyl)-5-methyl-1,3-oxazol-4-yl]methoxy}benzyl)oxy]-1-phenyl-1H-pyrazole-4-carbaldehyde] registered a melting point of 148 to 149 °C.

`CCOC(=O)/C=C/c1cn(-c2ccccc2)nc1OCc1ccc(OCc2nc(-c3ccco3)oc2C)cc1` [Example 87, ethyl (2E)-3-(3-[(4-{[2-(2-furyl)-5-methyl-1,3-oxazol-4-yl]methoxy}benzyl)oxy]-1-phenyl-1H-pyrazol-4-yl}-2-propenoate]: the melting point is 142 to 143 °C.

As to `Cc1oc(-c2ccco2)nc1COc1ccc(COc2nn(-c3ccccc3)cc2/C=C/C(=O)O)cc1` [Example 88, (2E)-3-{3-[(4-{[2-(2-furyl)-5-methyl-1,3-oxazol-4-yl]methoxy}benzyl)oxy]-1-phenyl-1H-pyrazol-4-yl}-2-propenoic acid], the melting point is 144 to 145 °C.

With `Cc1oc(-c2ccco2)nc1COc1ccc(COc2nn(-c3ccccc3)cc2C#N)cc1` [Example 89, 3-[(4-{[2-(2-furyl)-5-methyl-1,3-oxazol-4-yl]methoxy}benzyl)oxy]-1-phenyl-1H-pyrazole-4-carbonitrile], the melting point is 158 to 159 °C.

With `Cc1oc(-c2ccccc2)nc1COc1ccc(OCc2nc(-c3ccccc3)oc2CO)cc1` [Example 91, [4-({4-[(5-methyl-2-phenyl-1,3-oxazol-4-yl)methoxy]phenoxy}methyl)-2-phenyl-1,3-oxazol-5-yl]methanol], the melting point fell in the range of 157 to 158 °C.

`COCOCc1nc(-c2ccccc2)oc1COc1ccc(OCc2nc(-c3ccccc3)oc2C)cc1` [Example 92, 4-[(methoxymethoxy)methyl]-5-({4-[(5-methyl-2-phenyl-1,3-oxazol-4-yl)methoxy]phenoxy}methyl)-2-phenyl-1,3-oxazole] gave a melting point of 74 to 75 °C.

As to `Cc1oc(-c2ccccc2)nc1COc1ccc(OCc2oc(-c3ccccc3)nc2CO)cc1` [Example 93, [5-({4-[(5-methyl-2-phenyl-1,3-oxazol-4-yl)methoxy]phenoxy}methyl)-2-phenyl-1,3-oxazol-4-yl]methanol], the melting point lay within 143 to 144 °C.

In the case of `COc1cc(COc2nn(-c3ccccc3)cc2/C=C/C(N)=O)ccc1OCc1nc(-c2ccco2)oc1C` [Example 94, (2E)-3-{3-[(4-{[2-(2-furyl)-5-methyl-4-oxazolyl]methoxy}-3-methoxybenzyl)oxy]-1-phenyl-1H-pyrazol-4-yl}-2-propenamide], the melting point was in the range of 187 to 188 °C.
